Test system: primary normal human bladder epithelial cells
Test: 3H-thymidine incorporation
Format: cell-based
Conditions: not given

Row | Substance | loss of potency/activity compared to parent as-APF 1 (orders of magnitude) | antiproliferative activity relative to as-APF 1 (in words)
1 | Galβ1-3GalNAcα-O-SLPAAVVVA [compound 2] | 2 orders of magnitude | –
2 | Galβ1-3GalNAcα-O-SVPAAVVVA [compound 3] | 4 orders of magnitude | –
3 | Galβ1-3GalNAcα-O-TLPAAVVVA [compound 4] | – | inactivation
4 | Galβ1-3GalNAcα-O-TLS(^ΨMe,Mepro)-AAVVVA [compound 9] | – | completely abolished activity
5 | Galβ1-3GalNAcα-O-TV-Aze-AAVVVA [compound 10] | – | completely abolished activity
6 | Galβ1-3GalNAcα-O-TV-Hyp-AAVVVA [compound 12] | 2–3 orders of magnitude | –
7 | Galβ1-3GalNAcα-O-TV-Pip-AAVVVA [compound 15] | – | complete retention
8 | Galβ1-3GalNAcα-O-TVPAAAAAA [compound 25] | – | decreased as-APF activity
9 | Galβ1-3GalNAcα-O-TVPAAGGGA [compound 26] | – | complete inactivation
10 | Galβ1-3GalNAcα-O-TVPAAVVVAK [compound 33] | – | complete loss of activity
11 | Galβ1-3GalNAcα-O-TVPAAVVVAK(Ac) [compound 35] | – | some of which was restored
12 | Galβ1-3GalNAcα-O-TVPAAVVVAK(dansyl) [compound 31] | – | no loss of activity

Test system: primary normal human bladder epithelial cells
Test: not given
Conditions: biological antiproliferation assays; cited from earlier work

Row | Substance | antiproliferative activity (previously determined, in words)
13 | Galβ1-3GalNAcβ-O-TVPAAVVVA | completely inactive
14 | Galβ1-4GlcNAcα-O-SLPAAVVVA | essentially equipotent
15 | Neu5Acα2-3Galβ1-3GalNAcα-O-TVPAAVVVA [APF] | essentially equipotent
16 | Neu5Acα2-3Galβ1-4GlcNAcα-O-TVPAAVVVA | essentially equipotent
17 | Neu5Acα2-3Galβ1-4GlcNAcαO-SLPAAVVVA | essentially equipotent
18 | TVPAAVVVA [nonglycosylated nonapeptide] | completely inactive

Test system: normal bladder epithelial as well as cells derived from urothelial carcinomas
Test: not given
Conditions: native and synthetic APF; cited from earlier work

Row | Substance | concentrations inhibiting proliferation
19 | Neu5Acα2-3Galβ1-3GalNAcα-O-TVPAAVVVA [APF] | picomolar to low nanomolar
